Values of other authors as cited in publication PMC11255275, “Structural insights into the triple agonism at GLP-1R, GIPR and GCGR manifested by retatrutide” (Cell Discovery, 2024).

Legend:
GLP-1R = conditions: among GLP-1R, GIPR and GCGR; general statement in introduction; cited from earlier work
From the text: (§1) The most successful treatments currently available include glucagon-like peptide-1 (GLP-1) receptor agonists (GLP-1RAs), exemplified by semaglutide (approved in 2017, $19.9 billion sales in 2023)[3] and tirzepatide (approved in 2022, $5.3 billion sales in 2023)[4].

GIPR = conditions: in addition to GLP-1R; cited from earlier work
From the text: as §1

Substance | receptor activation (GLP-1R) | receptor activation (GIPR)
semaglutide | solely activates GLP-1R | 
tirzepatide |  | also activates glucose-dependent insulinotropic polypeptide (GIP) receptor (GIPR)
